{
  "source": "paper PMC10175561",
  "about": "“Two single-point mutations in Ankyrin Repeat one drastically change the threshold temperature of TRPV1” (Nature Communications, 2023)",
  "biological_target": "T1, axTRPV1 (Ambystoma mexicanum, UniProt A0A5K7X138)",
  "T1 construct": "gene TRPV1; full-length cDNA in pGEMHE, expressed in Xenopus oocytes; cloned in the authors' earlier work",
  "T1 sequence (A0A5K7X138 1-858)": "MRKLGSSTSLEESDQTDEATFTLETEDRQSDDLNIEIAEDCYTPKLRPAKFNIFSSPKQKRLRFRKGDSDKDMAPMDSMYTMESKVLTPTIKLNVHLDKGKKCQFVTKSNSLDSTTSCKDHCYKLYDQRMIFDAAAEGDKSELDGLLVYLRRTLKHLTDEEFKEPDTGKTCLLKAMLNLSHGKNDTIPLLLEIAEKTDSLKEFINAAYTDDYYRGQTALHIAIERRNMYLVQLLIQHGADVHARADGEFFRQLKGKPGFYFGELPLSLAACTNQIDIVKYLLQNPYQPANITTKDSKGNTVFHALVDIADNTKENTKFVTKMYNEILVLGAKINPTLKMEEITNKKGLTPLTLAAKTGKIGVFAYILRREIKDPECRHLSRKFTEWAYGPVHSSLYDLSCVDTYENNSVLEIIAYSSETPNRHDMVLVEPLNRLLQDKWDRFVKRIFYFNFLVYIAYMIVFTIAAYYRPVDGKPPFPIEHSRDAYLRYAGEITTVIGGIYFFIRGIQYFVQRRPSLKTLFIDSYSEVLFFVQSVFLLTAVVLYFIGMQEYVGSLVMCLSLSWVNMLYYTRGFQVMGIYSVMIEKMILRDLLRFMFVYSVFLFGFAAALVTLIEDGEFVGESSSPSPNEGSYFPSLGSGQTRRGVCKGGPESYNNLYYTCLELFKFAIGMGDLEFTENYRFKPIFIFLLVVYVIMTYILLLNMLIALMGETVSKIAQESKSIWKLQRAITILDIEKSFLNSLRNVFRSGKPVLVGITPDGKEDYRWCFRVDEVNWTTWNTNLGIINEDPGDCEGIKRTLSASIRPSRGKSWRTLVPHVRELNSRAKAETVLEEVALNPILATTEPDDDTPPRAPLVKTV",
  "assay": "two-electrode voltage clamp, Xenopus oocytes",
  "assay_type": "cell-based",
  "conditions": "agonist, dose-dependent activation; current at -80 mV; bath pH 7.4",
  "data": [
    {"smiles": "COc1cc(CNC(=O)CCCC/C=C/C(C)C)ccc1O", "note": "[capsaicin]", "values": [
      {"measurement": "two-electrode voltage clamp, Xenopus oocytes", "result": "Capsaicin and acid activated all TRPV1s in a dose-dependent manner"}
    ]}
  ]
}
